| SMILES | melting point |
| --- | --- |
| CCOc1cc2nc(CN(C)C)nc(Nc3cccc(-c4csc(C)n4)c3)c2cc1OCC | 170 to 172 °C |
| CC(C)(C(=O)OCC(=O)c1ccccc1)n1c(=O)[nH]c2ccc(F)cc2c1=O | 192 to 193 °C |
| CCc1nn2c(-c3ccc(OC)cc3OC)cccc2c1N(CC)CCF | 51.2 to 53.6 °C |
| Cc1ccc(S(=O)(=O)C2(CC#Cc3ccc(Cl)cc3)CC(=O)NC2=O)cc1 (centres undefined) | 186 to 188 °C |
| Nc1ncnc2c1c(-c1ccc(Oc3ccccc3)cc1)cn2C1CCC(O)CC1 (centres undefined) | 199 to 200 °C |
| COC(=O)C(=O)c1ccc(OCC(=O)c2cccc3ccccc23)cc1 | 99 to 100 °C |
| Cc1ccc(/C=C/C2=CCN(Cc3nc4ccccc4[nH]3)CC2)o1 | 191 to 193 °C |
| COc1ccc2c(c1)CN(S(=O)(=O)NC(Cc1cc3c(N)nccc3s1)C(=O)N1CCC(C)CC1)CC2 (centres undefined) | 175 to 176 °C |
| c1nc(NCCN2CCOCC2)c2sc3nc(N4CCCC4)c4c(c3c2n1)CCOC4 | 189 to 191 °C |
| CN1C(=O)CC[C@]2(C)c3ccc(Sc4ncccc4[N+](=O)[O-])cc3CC[C@@H]12 | 80 to 84 °C |
| CCOc1cc(Cc2cnc(N)nc2N)cc2c1OC1(C=C2Br)CCC1 | 213 to 214 °C |
| N#Cc1nn(-c2c(Cl)cc(C(F)(F)F)cc2Cl)cc1-c1ccoc1Br | 111 °C |
| CC1(C)CCc2cccc3c(-c4ccc(F)cc4)c(C=CC4CC(O)CC(=O)O4)n1c23 (centres undefined) | 166 °C |
| CCCCNc1cc(CNCc2cccc(O)c2)cc(S(N)(=O)=O)c1Oc1ccccc1 | 174 to 175 °C |
| CC(Cn1cnnn1)n1nnc2cc3c(=O)n(C4CC4)nnc3cc2c1=O (centres undefined) | 233 to 235 °C |
| CCCn1nc2c(N)nc3ccccc3c2c1CCCCO | 135 to 136 °C |
| CSc1ccc(S(=O)(=O)N2CCCC2=O)cc1 | 123 to 125 °C |
| Cc1ccccc1C(=O)Nc1ccc(C(=O)N2c3ccccc3CNc3ccccc32)cc1 | 68 to 71 °C |
| O=C(Nc1ccccn1)c1cc2ccnc(Cl)c2[nH]1 | 94 to 102 °C |
| COC(=O)C1=C(C)NC(C)=C(C(=O)OCCN)C1c1cccc(Cl)c1Cl (centres undefined) | 166 to 167 °C |
| Fc1ccc(-c2cc(C(F)(F)F)n[nH]2)c(F)c1 | 157 to 158 °C |
| COCC(COC)N1CCc2cc(Nc3ncc(Cl)c(Nc4ccc(C(N)=O)cc4OC)n3)c(OC)cc2CC1 | 220 to 223 °C |
| C/C(=N\O)c1cccc(NC(=O)NCC(=O)N(CC(=O)N(C)c2ccccc2)c2ccccc2)c1 | 170 °C |
| COc1ccc2nccc(CCC[C@@H]3CCN(CC#Cc4ccccc4F)C[C@@H]3C(=O)O)c2c1 | 154 °C |
| CCC(C)C(NS(=O)c1ccc(C)cc1)C1(C(=O)NC)SCCS1 (centres undefined) | 147 to 154 °C |

| SMILES | melting point |
| --- | --- |
| Cc1nc(COc2ccc(Cl)cc2)sc1C(=O)N[C@H](C)[C@](O)(Cn1cncn1)c1ccc(F)cc1F | 134 to 135 °C |
| CN(C)C1CCc2[nH]c3c(C(N)=O)cccc3c2C1 (centres undefined) | 252 to 254 °C |
| N#Cc1c([N+](=O)[O-])ccc(Cl)c1CBr | 89 °C |
| Cn1c(COc2ccc(CC3SC(=O)NC3=O)cc2)nc2ccc(Oc3ccc(NC(=O)C4CCCC4)cc3)cc21 (centres undefined) | 227 to 228 °C |
| CN(C(=O)c1cccc(Cn2cnc3ccccc32)c1)C1CCCCC1 | 99 to 101 °C |
| COC(=O)c1cccc(-c2cc(-c3ccc(C(F)(F)F)cc3)on2)c1 | 139 to 140 °C |
| CCOc1c(Nc2ccc3[nH]cnc3c2)c(=O)c1=O | 243 to 244 °C |
| CCc1cc(-c2ccncc2)cc(CC)c1C(C(N)=O)C(N)=O | 184 to 186 °C |
| O=C(NS(=O)(=O)C=Cc1ccccc1)N1CCC(CCCc2ccc(O)cc2)CC1 | 132 to 135 °C |
| COc1ccc(CCNC(=O)C(F)(F)F)cc1C=O | 105 to 106 °C |
| CCOC(=O)C(O)(CC(C)(C)c1ccc(OC)cc1)C(F)(F)F (centres undefined) | 79 to 80 °C |
| CC1(C)SC(=O)N(Cc2ccccc2[N+](=O)[O-])C1=O | 72.3 to 73.2 °C |
| CSC1CCC2C3CCC4=CC(=O)C=CC4(C)C3C(=O)CC12C (centres undefined) | 180 to 183 °C |
| O=C(NCC1(O)CCCCCC1)c1cc(-c2cccnc2N2CCC(C(=O)O)CC2)ccc1Cl | 117 to 119 °C |
| CCCCCCCCCCCCCCCCC[C@@H](C[C@@H]1OC(=O)[C@H]1CC)OC(=O)[C@H](CC(C)C)NC=O | 60 to 61 °C |
| Cn1c(C(=O)O)cc2c(OC[C@@H](O)CN3CCC(c4ccc5ccccc5c4)CC3)cccc21 | 158 to 161 °C |
| CCCNc1nc(=O)c(C)cn1C1CC(N=[N+]=[N-])C(CO)O1 (centres undefined) | 146 °C |
| O=S(=O)(c1ccccc1)n1cc(CCOC2OC(CO)C(O)CC2O)c2ccccc21 (centres undefined) | 55 to 57 °C |
| CC1(COC2CC3C4CCC5=CC(=O)CCC5(C)C4(F)C(O)CC3(C)C2(O)C(=O)CO)CO1 (centres undefined) | 223 to 227 °C |
| Cc1cc(Cc2cnc(N[N+](=O)[O-])[nH]c2=O)cnc1C | 212 to 213 °C |
| CCOC(=O)Cc1nn(CC(=O)Nc2cc(C(F)(F)F)ccc2Br)c(=O)c2ccccc12 | 160 °C |
| CC(C)Cn1c(=O)n(C)c(=O)c2c(SCCCO)c(C(=O)c3cccnc3)sc21 | 152 to 155 °C |
| NC(=O)CCN(CCC(N)=O)Cc1ccccc1 | 103 to 106 °C |
| CCSc1ccc2c(c1)NC(=O)C2 | 125 to 126 °C |
| CCOCc1nc2c(N)nc3cc(OCc4cccc([N+](=O)[O-])c4)ccc3c2n1CC(C)C | 162 to 164 °C |

| SMILES | melting point |
| --- | --- |
| O=C(O)CCCCCCCOc1ccccc1O | 60 to 64 °C |
| CC(C)(C)CC(=O)NC[C@H]1CN(c2ccc(N3CCC(=CC#N)CC3)c(F)c2)C(=O)O1 | 210 to 212 °C |
| CCCN1CCN(C2=Nc3cc(Br)ccc3N3CCc4cccc2c43)CC1 | 134 to 136 °C |
| CC(CN(C)C)Nc1ccnc2cc3c(cc12)OCO3 (centres undefined) | 71 to 72 °C |
| CCCCCCCCCCCCc1cc(C(C(=O)Nc2c(OC)cc(OC)cc2OC)c2ccccc2)on1 (centres undefined) | 88 to 97 °C |
| COC(=O)c1ccc(OC)c(O)c1 | 62 to 63 °C |
| Cc1cc(-n2cccn2)c2cccc(OCc3c(Cl)ccc(S(=O)(=O)N4CCOCC4)c3Cl)c2n1 | 178 °C |
| CS(=O)(=O)Nc1ccccc1OC1CCCCC1=O (centres undefined) | 104 to 106 °C |
| Cc1ccc(C=CC(=O)N[C@@H](Cc2ccc(OCCc3nc(-c4ccccc4)oc3C)c(Br)c2)C(=O)O)cc1 | 243 to 245 °C |
| c1ccc2cc3sccc3cc2c1 | 193 to 194 °C |
| O=CNc1nc(OCc2ccccc2)ncc1F | 153 to 157 °C |
| O=C(CC(=O)Nc1ccccc1Cl)CS(=O)(=O)C(c1ccc(Cl)cc1)c1ccc(Cl)cc1 | 92 to 95 °C |
| O=C(COc1ccc(Cl)c(Cl)c1)Nc1cscc1C(=O)O | 258 to 264 °C |
| COP(=O)(NC1C(=O)N2C(C(=O)OCc3ccc([N+](=O)[O-])cc3)=C(C=CN3CCCCC3)CSC12)OC (centres undefined) | 220 to 221 °C |
| O=C(N[C@H]1CCC[C@@H](CN2CC=C(c3ccccc3)CC2)C1)c1ccccc1 | 200 to 204 °C |
| Oc1ccc(I)nc1Cl | 142 to 143 °C |
| CNC(=O)c1cnn(-c2ccccn2)c1C#N | 200 to 202 °C |
| COc1ccc(-c2nc(-c3ccccc3)no2)cc1 | 97 to 98 °C |
| Cc1cc(C)n(C(=O)CCNS(=O)(=O)c2ccc(Cl)cc2)n1 | 101 °C |
| O=S1(=O)OC[C@H]2CCCN21 | 45 to 46 °C |
| O=C1c2cccc(Cl)c2C(O)N1c1ccc2ccc(Cl)nc2n1 (centres undefined) | 270 °C |
| O=C1N(CC2CCCO2)c2cccc(Cl)c2C12COc1cc3c(cc12)CCO3 (centres undefined) | 78 to 82 °C |
| O=C(NCCn1cc(Cn2ccnc2)c2ccccc21)Nc1ccccc1 | 198 to 199 °C |
| CS(=O)(=O)n1c(Cc2ccc(C(=O)O)cc2)cc2cc(Cl)ccc21 | 244 °C |
| CC1CCC(C(C)C)C(OC(=O)/C=C\C(=O)c2ccccc2)C1 (centres undefined) | 85 to 87 °C |

| SMILES | melting point |
| --- | --- |
| Oc1ccc([C@H]2CC[C@H](NCC#Cc3ccccc3)CC2)cc1 | 131 to 136 °C |
| CCOC(=O)/C=C/c1cn(-c2ccc(C(F)(F)F)cc2)nc1C(C)C | 118 to 119 °C |
| CCCNCC(O)c1cccc(F)c1 (centres undefined) | 46 to 47.3 °C |
| CCOC(=O)C1=C(C)N(C(C)=O)C(c2csc(C)n2)=NC1c1ccc(OC)cc1 (centres undefined) | 138 to 140 °C |
| CCCC(=O)Oc1ccc2[nH]c(=O)c(-c3nnn(Cc4cccc(OCc5ccc6ccccc6n5)c4)n3)cc2c1 | 200 to 202 °C |
| O=C(/C=C/c1ccc2ccccc2c1)Nc1cc(Cl)c(Cl)cc1S(=O)(=O)O | 229 °C |
| N#Cc1ccc(-c2ccc(-c3nc4cc(C#N)ccc4[nH]3)cc2)nc1 | 346 to 347 °C |
| COc1c(C(=O)NC2CN3CCC2CC3)cc(Cl)c2c1CCCN2 (centres undefined) | 105 to 108 °C |
| COc1ccc(C2CCCCC2)cc1-c1csc(NC(=O)C2CCN(C(=O)c3cnccn3)CC2)n1 | 129 °C |
| CCN1C(=O)C(C)(C)C(=O)N(C)c2cc(CCN(CCn3cc(C)c4occc4c3=O)Cc3cnccc3C)ccc21 | 165 to 166 °C |
| O=c1cc2c(n[nH]1)-c1ccccc1CC2 | 236 °C |
| O=C(NCC1CCOCC1)NC12CC3CC(CC(C3)C1)C2 | 196 to 198 °C |
| COc1cc([N+](=O)[O-])cc(OC(F)F)c1OC | 72 to 73 °C |
| CC(CCNC(=O)C(C#N)=Cc1cc(O)c(O)c(O)c1)NC(=O)C(C#N)=Cc1cc(O)c(O)c(O)c1 (centres undefined) | > 300 °C |
| COC(=O)c1ccc(N(N)C(C)=O)c(N)c1 | 175 to 178 °C |
| CC(C)(CNS(C)(=O)=O)Nc1nc(Cl)ncc1Cl | 156 to 158 °C |
| C[C@H]1CCCN(C(=O)[C@@H]2Cc3ccccc3N2c2ccc(=S)n(C)n2)C1 | 249 to 252 °C |
| c1cncc(-c2nncs2)c1 | 78 to 79 °C |
| CS(=O)(=O)c1ccc(C(CC2CCCC2)C(=O)Nc2cnc(CC#N)cn2)cc1Cl (centres undefined) | 79 to 82 °C |
| CCOC(=O)CC(=O)Nc1ccc(S)cc1 | 69 °C |
| CCCN(CCC)Cc1coc(-c2ncn3c2CN(C)C(=O)c2c(Cl)cccc2-3)n1 | 105 to 107 °C |
| CS(=O)(=O)O[C@H]1CC[C@H](Nc2ccnc3cc(Cl)ccc23)CC1 | 154 to 159 °C |
| COC1=C(OC)C(=O)C(CCCCCCCCCCCCCCCCCCCCCC(=O)O)=C(C)C1=O | 86 to 87 °C |
| Cn1c(-c2ccccc2F)nnc1S(C)=O (centres undefined) | 95 to 97 °C |

— a melting point compilation (Tetko et al.; mined from patent text by program, amines drawn as free bases though some values may be those of a salt)
